How the values were obtained:
[1] = biological target: recombinant ROCK1 (amino acids 1-535) (Homo sapiens (Human), UniProt Q13464); experiment: Z'-lyte kinase assay, ROCK1; format: biochemical; details: @ 0.5 μM; read-out: ROCK1 % inh (0.5 μM)
Method: Determination of compounds ROCK inhibitory activity in vitro (Z'lyte assay): recombinant ROCK1 (amino acids 1-535) and ROCK2 (amino acids 1-552) proteins were purchased from ThermoFisher Scientific. Compounds activities were measured by Z'-lyte kinase kit (ThermoFisher Scientific) and IC50s were calculated.
Compounds activities were measured by Z'-lyte kinase kit (ThermoFisher Scientific). […] IC50s were calculated using the GraphPad Prism software with kinase activities data that were collected from 9 points serial dilution of compounds treatment. The ROCK inhibition in A7R5 cells and NIH3T3 (Acta2-Luc) cells was performed as described above.
The percent inhibition rate was calculated by normalizing the kinase activity value obtained with compound treatment against DMSO control value and then applied to the equation, […]. IC50's were calculated using the nonlinear regression curve fit function of the GraphPad Prism software with kinase activities data measured with 9 points 2-fold serial dilution of compounds treatment.

[2] = system: human oligodendrocyte/neuron progenitor cells; experiment: Chondroitin Sulfate Proteoglycan (CSPG) assay on human oligodendrocyte/neuron progenitors; format: cell-based; details: 1 μM and 3 μM, 72 hour
Method: Chondroitin Sulfate Proteoglycan (CSPG) assay on human oligodendrocyte/neuron progenitors in 96-well plate. […] Cells were seeded on the coated plates at a density of 6,000 cells per well in expansion media. The following day the expansion media was replaced with fresh spontaneous differentiation media containing testing compounds. Cells were imaged and neurite length was analyzed by IncuCyte S3 Live Cell Analysis System every 4 hours.

[3] = system: ppMlc (T18/S19) levels in A7R5 cells; experiment: A7R5 in-cell ELISA assay (ppMlc); format: cell-based, rat; details: Rattus norvegicus, A7R5, A7R5 cells, Table 2; read-out: pMLC IC50 (nM) A7R5
How it was run: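 Rat aortic smooth muscle A7R5 cells in DMEM with 10% FBS, seeded 24 h, then treated 90 min with 9-point 2-fold compound dilutions. ppMlc (T18/S19) measured by colorimetric in-cell ELISA; cellular IC50 from nonlinear regression curve fit.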

[4] = biological target: recombinant ROCK2 (amino acids 1-552) (Homo sapiens (Human), UniProt O75116); experiment: Z'-lyte kinase assay, ROCK2; format: biochemical
Chain of recombinant ROCK2 (amino acids 1-552) (O75116 1-552): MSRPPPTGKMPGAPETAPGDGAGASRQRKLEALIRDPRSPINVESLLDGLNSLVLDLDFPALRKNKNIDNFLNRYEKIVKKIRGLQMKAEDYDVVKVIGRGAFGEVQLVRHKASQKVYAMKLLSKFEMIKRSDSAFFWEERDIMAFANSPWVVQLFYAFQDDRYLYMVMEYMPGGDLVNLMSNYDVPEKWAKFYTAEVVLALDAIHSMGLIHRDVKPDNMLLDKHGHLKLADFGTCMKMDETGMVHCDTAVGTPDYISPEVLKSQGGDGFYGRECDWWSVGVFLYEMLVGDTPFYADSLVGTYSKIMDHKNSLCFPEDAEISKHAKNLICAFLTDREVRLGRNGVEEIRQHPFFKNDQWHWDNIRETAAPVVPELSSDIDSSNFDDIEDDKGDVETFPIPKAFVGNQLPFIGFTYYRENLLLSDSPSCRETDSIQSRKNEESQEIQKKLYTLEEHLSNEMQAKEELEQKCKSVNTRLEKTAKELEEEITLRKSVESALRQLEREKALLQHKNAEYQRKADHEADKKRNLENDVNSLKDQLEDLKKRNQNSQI
How it was run: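 Inhibition of recombinant human ROCK2 (residues 1-552, sourced from ThermoFisher Scientific) was assessed in vitro with the Z'-lyte kinase kit. Kinase activity with compound was normalized to DMSO control to give percent inhibition. IC50s came from 9-point 2-fold serial dilutions fitted by nonlinear regression in GraphPad Prism.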

[5] = system: ACTA2-promoter-driven-luciferase in NIH3T3 cells; experiment: NIH3T3 Acta2-promoter driven-luciferase assay; format: cell-based; details: Mus musculus, plus TGFβ1, 24 hr, read-out: NIH3T3, Acta2-luc, IC50
How it was run: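 Stable NIH3T3 line carrying luciferase reporter under human ACTA2 promoter (−1000-1 bp); confluent cells given 9-point compound dilutions with TGFβ1 for 24 hr. Lysed cells read for luciferase; IC50 from nonlinear regression fit.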

[6] = system: human oligodendrocyte/neuron progenitor cells; experiment: Neurite outgrowth and differentiation of human oligodendrocyte/neuron progenitors; format: cell-based
Method: Thawing and proliferation of human oligodendrocyte/neuron progenitor cells (OPCs). Cryopreserved human oligodendrocyte/neuron progenitors (Millipore Cat. No. CS204496) were recovered and cultured on maltrigel (BD Cat. No. 356324) coated T-25 flask in expansion media containing OPC/neuron basal medium, N21 medium supplement, recombinant human bFGF, PDGF-AA and NT-3. When cells reached 80% confluent, 3 ml of Accutase was applied (Millipore SCR005) to passage cells at 1:4 ratio. Sub-cultured cells were maintained in expansion media for proliferation.
Spontaneous differentiation of human oligodendrocyte/neuron progenitors in 24-well and 96-well plates. Coat plate with 10 μg/ml poly-L-ornithine (Sigma Cat. No. P4957) overnight at room temperature. Remove the poly-L-ornithine solution and rinse the plate with 1×PBS, add 10 μg/ml laminin (Millipore Cat. No. CC095) and incubate at 37° C. for at least 2 hours. Seed cells on the coated plates in expansion media and allowed to attach overnight. The next day expansion media was removed and replaced with freshly prepared spontaneous differentiation media only containing OPC/neuron basal media and N21 media supplement. For 14 day culture, differentiation media was replaced every 3-4 days. Cells were imaged and neurite length was analyzed by IncuCyte S3 Live Cell Analysis System every 4 hours. After 14 days of differentiation, cells were fixed by 4% paraformaldehyde and stained with DAPI and Neuron-specific ß-III tubulin antibody (R&D systems, NL1195R).

[7] = system: human oligodendrocyte/neuron progenitor cells; experiment: Aβ 1-42 induced cell death assay on human oligodendrocyte/neuron progenitors; format: cell-based; details: 3 μM, 10.5 μM Aβ1-42, 24 hour
Method: Aβ 1-42 induced cell death assay on human oligodendrocyte/neuron progenitors in 96-well plate. Cells were seeded on poly-L-ornithine and laminin coated plates at a density of 8,000 cells per well and maintained in expansion media until Day 3, then media was replaced with fresh spontaneous differentiation media containing testing compounds and IncuCyte Annexin V Red Reagent (1:200 dilution) (Essen BioScience Cat. No. 4641). After the pre-incubation period of 30 minutes at 37° C., 10.5 μM Aβ 1-42 (Bachem Product No. H-8146) was added directly in the pretreatment solution. Neurite length and total Annexin V positive area were analyzed by IncuCyte S3 Live Cell Analysis System every 2 hours.
In addition to promoting neuroregeneration, ROCK inhibitors have been reported to exert neuroprotective effects and prolong neuronal survival. Here we test the neuroprotective effect of ROCK inhibitors against Aβ1-42. Human oligodendrocyte/neuron progenitor cells were pre-incubated with ROCK inhibitors for 30 minutes before exposing to 10.5 μM Aβ1-42. IncuCyte Annexin V Red Reagent was added to culture media to label cell apoptosis. Pictures were taken by IncuCyte S3 and total Annexin V positive area was analyzed by IncuCyte S3 base software. Neurite length was quantified by IncuCyte NeuroTrack Software Module, see FIGS. 3b and 3c.

[8] = system: sAPPβ; details: direct injection into hippocampus; cited from earlier work
[9] = cited from earlier work

Chain of recombinant ROCK1 (amino acids 1-535) (Q13464 1-535): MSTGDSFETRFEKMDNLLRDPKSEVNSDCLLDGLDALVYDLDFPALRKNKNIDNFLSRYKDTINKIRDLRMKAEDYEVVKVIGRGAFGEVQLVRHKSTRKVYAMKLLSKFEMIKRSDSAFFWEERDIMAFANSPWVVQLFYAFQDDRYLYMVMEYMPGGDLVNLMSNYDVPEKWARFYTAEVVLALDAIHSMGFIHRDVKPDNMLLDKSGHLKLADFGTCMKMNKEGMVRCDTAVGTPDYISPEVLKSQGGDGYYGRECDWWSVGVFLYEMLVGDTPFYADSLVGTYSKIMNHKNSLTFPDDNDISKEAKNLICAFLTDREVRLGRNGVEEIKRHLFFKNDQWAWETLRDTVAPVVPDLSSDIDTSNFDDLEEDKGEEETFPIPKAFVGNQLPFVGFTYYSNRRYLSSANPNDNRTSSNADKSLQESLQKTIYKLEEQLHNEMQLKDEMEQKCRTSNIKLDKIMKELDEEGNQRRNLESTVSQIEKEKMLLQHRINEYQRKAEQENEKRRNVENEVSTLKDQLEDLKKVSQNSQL

| inhibition at 0.5 µM [1] [%] | IC50 [3] [nM] | IC50 [4] [nM] | inhibition at 0.5 µM ([4]; @ 0.5 μM, read-out: ROCK2 % inh (0.5 μM)) [%] | Structure (SMILES) | CSPG mediated neurite outgrowth arrest [2] | IC50 [5] [nM] | neuronal differentiation and maturation ([6]; 14 days culture, Beta III tubulin) | neurite length ([6]; various concentrations, 3 days culture) | Aβ1-42 induced cell death (Annexin V area) [7] | neurite outgrowth in the presence of Aβ1-42 [7] | sAPPβ [8] | brain penetration ([9]; in vivo) | half-life ([9]; oral PK) [h] | oral bioavailability (F) ([9]; oral) [%] |
| --- | --- | --- | --- | --- | --- | --- | --- | --- | --- | --- | --- | --- | --- | --- |
| 99 | 60 | 6.3 | 98 | CNC(C(=O)Nc1ccc(-c2cn[nH]c2)cc1)c1ccc(Cl)cc1 (centres unmarked) [Example 17, N-(4-(1H-pyrazol-4-yl)phenyl)-2-(4-chlorophenyl)-2-(methylamino)acetamide] | significantly counteract | 108 | facility neuronal differentiation and maturation | significantly increase neurite length | significantly protect | promoted neurite outgrowth | – | – | – | – |
| – | – | – | – | CN(C)CCOc1cc(-c2cn[nH]c2)ccc1NC(=O)C1COc2ccccc2O1 (centres unmarked) [SR3677] | – | – | – | – | – | – | lowering sAPPβ | lack of brain penetration | < 1 | 5 |

Reference: patent publication US11479533B2, “Inhibitors of Rho associated coiled-coil containing protein kinase” (KADMON CORPORATION, LLC, priority 2017, dated 2022)
